{"source": "patent US10336757B2", "about": "“Treatment of neurodegenerative diseases through inhibition of HSP90” (Sloan-Kettering Institute for Cancer Research, priority 2006, dated 2019)", "key": {"[1]": {"biological_target": "P-glycoprotein (Homo sapiens (Human), UniProt P08183)", "sequence (P08183 whole entry)": "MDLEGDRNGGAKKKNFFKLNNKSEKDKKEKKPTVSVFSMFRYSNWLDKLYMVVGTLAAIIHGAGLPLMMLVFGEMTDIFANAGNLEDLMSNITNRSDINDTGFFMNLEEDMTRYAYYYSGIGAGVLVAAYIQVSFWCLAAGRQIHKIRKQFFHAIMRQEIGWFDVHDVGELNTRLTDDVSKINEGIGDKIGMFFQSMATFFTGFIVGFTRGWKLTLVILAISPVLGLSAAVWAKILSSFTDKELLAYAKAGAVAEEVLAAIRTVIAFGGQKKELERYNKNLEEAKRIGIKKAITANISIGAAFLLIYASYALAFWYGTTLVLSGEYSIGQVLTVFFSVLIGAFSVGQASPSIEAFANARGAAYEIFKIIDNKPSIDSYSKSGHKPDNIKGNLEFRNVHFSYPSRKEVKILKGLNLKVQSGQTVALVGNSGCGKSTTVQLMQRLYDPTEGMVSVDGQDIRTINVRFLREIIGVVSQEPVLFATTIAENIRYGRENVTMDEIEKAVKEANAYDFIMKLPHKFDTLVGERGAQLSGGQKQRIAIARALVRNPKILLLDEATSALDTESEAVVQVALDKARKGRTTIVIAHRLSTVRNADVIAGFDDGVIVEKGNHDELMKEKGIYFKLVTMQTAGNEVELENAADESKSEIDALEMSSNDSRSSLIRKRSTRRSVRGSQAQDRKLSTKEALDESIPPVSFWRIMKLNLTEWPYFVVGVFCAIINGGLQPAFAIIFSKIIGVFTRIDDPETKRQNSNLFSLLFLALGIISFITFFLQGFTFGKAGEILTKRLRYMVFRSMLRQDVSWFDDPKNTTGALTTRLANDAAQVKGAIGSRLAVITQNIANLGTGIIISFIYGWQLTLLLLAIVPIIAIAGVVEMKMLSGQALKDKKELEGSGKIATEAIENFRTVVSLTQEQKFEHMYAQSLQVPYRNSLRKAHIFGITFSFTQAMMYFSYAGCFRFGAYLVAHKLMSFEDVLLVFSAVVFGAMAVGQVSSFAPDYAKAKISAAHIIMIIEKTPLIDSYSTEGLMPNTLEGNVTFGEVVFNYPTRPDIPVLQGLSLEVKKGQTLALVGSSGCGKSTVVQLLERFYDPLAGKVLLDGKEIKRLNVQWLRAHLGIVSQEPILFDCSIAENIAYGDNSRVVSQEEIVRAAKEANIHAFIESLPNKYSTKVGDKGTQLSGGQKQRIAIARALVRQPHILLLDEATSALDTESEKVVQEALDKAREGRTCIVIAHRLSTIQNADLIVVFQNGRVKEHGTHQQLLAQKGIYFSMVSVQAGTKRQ", "conditions": "known Hsp90 inhibitor, cited from earlier work"}, "[2]": {"system": "p35", "assay": "p35, Tau phosphorylation and Hsp70 in primary rat cortical neurons and COS-7/p35, COS-7/p35/Tau cells", "assay_type": "cell-based", "conditions": "compared with PU24FC1", "source_text": "Embryonic primary rat cortical neurons and COS-7 cells transfected with cDNAs corresponding to either p35 alone (COS-7/p35) or both p35 and Tau (COS-7/p35/Tau) are relevant experimental systems to study aberrant neuronal kinase activity because phosphorylation of Tau at putative cdk5 sites is both enhanced in these cells and in embryonic and juvenile brains (50, 52) and is similar to that in AD-afflicted brains (50). […]\nTo further examine the roles played by Hsp90 in tauopathy, we made use of both PU24FC1 and 17-(allyllamino)-17-demethoxygeldanamycin (17AAG) and investigated their effects on both cdk5/p35 and TauP301L in primary neuronal and COS-7 cell cultures. […] After incubation, cells were harvested and lysed in 2% SDS, and the resulting samples were analyzed by Western blotting.\nWe detected a dose- and time-dependent degradation of p35 by PU24FC1 in primary neurons, as well as in COS-7/p35 and COS-7/p35/Tau cells. […] Reduction of p35 levels by Hsp90 inhibition affected the activity of the cdk5/p35 complex, as measured using a substrate of cdk5, the histone-H1."}, "[3]": {"conditions": "known Hsp90 inhibitors, cited from earlier work"}, "[4]": {"conditions": "cited from earlier work"}, "[5]": {"system": "tau phosphorylation at pathological sites", "assay": "Tau phosphorylation in AD cellular models", "assay_type": "cell-based"}}, "note": "Where two headings read alike, the source gives them in different places."}
{"smiles": "C=CCNC1=C2C[C@@H](C)C[C@H](OC)[C@H](O)[C@@H](C)/C=C(\\C)[C@H](OC(N)=O)[C@@H](OC)/C=C\\C=C(/C)C(=O)NC(=CC1=O)C2=O", "note": "[Compound 17AAG, 17-(allyllamino)-17-demethoxygeldanamycin]", "values": [{"measurement": "P-gp substrate", "setting": "[1]", "result": "P-gp substrate"}, {"measurement": "P-gp substrate", "setting": "[1]; listed as 17-AAG", "result": "P-glycoprotein substrate"}, {"measurement": "effects on p35 and mTau", "setting": "[2]", "result": "Analogous effects"}, {"measurement": "crossing of the blood-brain barrier", "setting": "[3]", "result": "do not cross the blood-brain barrier"}, {"measurement": "crossing of the blood-brain barrier", "setting": "[3]; listed as 17-AAG", "result": "does not effectively cross the blood brain barrier"}, {"measurement": "solubility", "setting": "[4]", "result": "poorly soluble"}]}
{"smiles": "COC1=C2C[C@@H](C)C[C@H](OC)[C@H](O)[C@@H](C)/C=C(\\C)[C@H](OC(N)=O)[C@@H](OC)/C=C\\C=C(/C)C(=O)NC(=CC1=O)C2=O", "note": "[geldanamycin]", "values": [{"measurement": "crossing of the blood-brain barrier", "setting": "[3]", "result": "do not cross the blood-brain barrier"}, {"measurement": "solubility", "setting": "[4]", "result": "poorly soluble"}, {"measurement": "tau phosphorylation levels at pathological sites", "setting": "[5]", "result": "reduced"}]}
{"smiles": "C[C@@H]1C[C@H]2O[C@@H]2/C=C\\C=C\\C(=O)Cc2c(Cl)c(O)cc(O)c2C(=O)O1", "note": "[radicicol]", "values": [{"measurement": "crossing of the blood-brain barrier", "setting": "[3]", "result": "do not cross the blood-brain barrier"}, {"measurement": "solubility", "setting": "[4]", "result": "poorly soluble"}]}
